Patent US10457641B2, “Certain chemical entities, compositions, and methods” (NEUPHARMA, INC., priority 2012, dated 2019)
pIC50: −log10 of the molar value.

What was measured:
[1] = tested on: Colo-205 (human colon carcinoma cell); experiment: Inhibition of cancer cell growth, MTS assay, Colo-205; assay type: cell-based; settings: 72 h treatment
Procedure: (§1) A375 (human melanoma cell, BRAF V600E Mutant), A549 (adenocarcinomic human alveolar basal epithelial cell) and Colo-205 (human colon carcinoma cell) were purchased from ATCC (American Type Culture Collection, Manassas, Va.). All cell lines were maintained in RPMI 1640 (Hyclone) or DMEM (Hyclone) supplemented with 10% fetal bovine serum (FBS, Hyclone), glutamine (2 mM, Hyclone), and antibiotics (penicillin 100 U/mL and streptomycin 50 μg/mL) at 37° C. in a humidified atmosphere of 5% CO2 in air.
(§2) To test IC50 of inhibition of individual compounds against each cell line, A375, A549 and Colo-205 cells were first plated in 96-well plates at densities of 2000-4000 cells/well. Cells were then incubated to allow cells to adhere and grow for 24 h. Cells were then treated with a series of concentrations of compounds for 72 h. The highest concentration of compounds was 20 μM. Cells were then removed from the incubator and medium was removed by inverting and tapping the plates. 100 μL of MTT (0.5 mg/ml) or 10 μL or MTS was added to each well followed by an incubated at 37° C. for 4 h. Then MTT was removed and 200 μL of DMSO was added to each well, followed by reading the ODs at 570 nm after a 5 second shaking cycle in a 96-well spectrophotometer. For MTS method, MTS was not removed, and the incubated solutions were directly put in a 96-well spectrophotometer for the reading of the ODs at 492 nm.
(§3) IC50 was calculated by plotting the concentration of compound vs the percentage of inhibition in treated wells using GraphPad Prism 5. […] The scale utilized in Table 3 is as follows: +++ less than 1 μM; ++ between 1 μM and 5 μM; and + greater than 5 μM.

[2] = tested on: A549 (adenocarcinomic human alveolar basal epithelial cell); experiment: Inhibition of cancer cell growth, MTT assay, A549; assay type: cell-based; settings: 72 h treatment
Procedure: as §1, §2, §3

BRAF V600E = target: T1, BRAF V600E (Homo sapiens, UniProt P15056, V600E); experiment: Z'-LYTE kinase inhibition assay, BRAF V600E; assay type: biochemical; settings: 1 μM compound; Z'-LYTE method
T1 construct: purchased Invitrogen
T1 sequence (P15056 whole entry V600E): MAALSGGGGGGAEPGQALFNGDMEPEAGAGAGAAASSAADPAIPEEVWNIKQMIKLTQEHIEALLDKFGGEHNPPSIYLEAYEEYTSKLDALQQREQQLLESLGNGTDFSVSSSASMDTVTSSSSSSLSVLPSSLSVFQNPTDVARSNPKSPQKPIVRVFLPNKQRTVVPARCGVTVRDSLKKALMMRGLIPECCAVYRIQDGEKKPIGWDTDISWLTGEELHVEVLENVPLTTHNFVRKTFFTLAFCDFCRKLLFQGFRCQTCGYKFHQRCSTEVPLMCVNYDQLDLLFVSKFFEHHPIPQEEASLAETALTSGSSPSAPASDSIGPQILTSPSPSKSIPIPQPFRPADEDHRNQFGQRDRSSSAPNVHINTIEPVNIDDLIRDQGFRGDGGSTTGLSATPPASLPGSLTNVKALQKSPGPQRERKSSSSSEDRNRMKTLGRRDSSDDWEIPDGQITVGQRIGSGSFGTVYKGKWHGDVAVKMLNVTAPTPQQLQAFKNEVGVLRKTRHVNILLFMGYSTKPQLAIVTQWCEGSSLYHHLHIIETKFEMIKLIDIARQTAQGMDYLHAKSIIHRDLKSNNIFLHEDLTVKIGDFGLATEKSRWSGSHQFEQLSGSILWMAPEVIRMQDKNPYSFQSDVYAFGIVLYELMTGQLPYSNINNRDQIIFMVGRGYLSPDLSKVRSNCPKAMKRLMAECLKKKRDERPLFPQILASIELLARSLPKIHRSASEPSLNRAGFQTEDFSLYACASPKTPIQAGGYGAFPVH
Procedure: (§4) Inhibitory activities of compounds against BRAF or BRAF V600E were measured by Invitrogen using Z′-LYTE® Method as briefly described in the following.
(§5) 4× Test compounds are dissolved in 1% DMSO. […] ATP solutions are diluted to a 4×ATP working concentration in Kinase Buffer (50 mM HEPES pH 7.5, 0.01% BRIJ-35, 10 mM MgCl2, 1 mM EGTA).
(§6) Reaction starts by 30-second shaking of mixture consisting of 2.5 μL 4× test compound, 2.5 μL 2× kinase reaction mixture and 2.5 μL 4×ATP Solution on Bar-coded Corning, low volume NBS, black 384-well plate (Corning Cat. #3676). Then the mixture is incubated for 60-minute at room temperature for the kinase reaction, followed by addition of 5 μL of a 1:1024 dilution of development reagent A and 30-second plate shake. The mixture is then incubated for another 60-minute at room temperature for development reaction. Finally fluorescence is read by plate reader.

[3] = tested on: A375 (human melanoma cell, BRAF V600E Mutant); experiment: Inhibition of cancer cell growth, MTT assay, A375; assay type: cell-based; settings: A-375, 72 h treatment
Procedure: as §1, §2, §3

BRAF = target: T2, BRAF (Homo sapiens, UniProt P15056); experiment: Z'-LYTE kinase inhibition assay, BRAF; assay type: biochemical; settings: 1 μM compound; Z'-LYTE method
T2 construct: purchased Invitrogen
T2 sequence (P15056 whole entry): as the sequence (P15056 whole entry V600E) above, with E600V counted along it
Procedure: as §4, §5, §6

Row | SMILES | pIC50 [1] | inhibition at 1 µM (BRAF V600E) [%] | pIC50 [3] | inhibition at 1 µM (BRAF) [%] | pIC50 [2]
1 | O=C(Nc1cc(F)cc(F)c1)Nc1cc(F)c(F)c(C(=O)c2ccc3ncccc3c2)c1F [Compound C005, 1-(3,5-difluorophenyl)-3-(2,4,5-trifluoro-3-(quinoline-6-carbonyl)phenyl)urea] | < 5.30 | < 70 | 5.30 to 6.00 | – | 5.30 to 6.00
2 | CCCS(=O)(=O)Nc1cc(F)c(F)c(C(=O)c2ccc3ncncc3c2)c1F [Compound C010, N-(2,4,5-trifluoro-3-(quinazoline-6-carbonyl)phenyl)propane-1-sulfonamide] | > 6.00 | > 89 | > 6.00 | > 89 | < 5.30
3 | CCCS(=O)(=O)Nc1cc(F)c(F)c(C(=O)c2ccc3ncccc3c2)c1F [Compound C001, N-(2,4,5-trifluoro-3-(quinoline-6-carbonyl)phenyl)propane-1-sulfonamide] | 5.30 to 6.00 | > 89 | > 6.00 | 70 to 89 | < 5.30
4 | O=C(Nc1cc(F)c(F)c(C(=O)c2ccc3ncccc3c2)c1F)c1cc(F)cc(F)c1 [Compound C008, 3,5-difluoro-N-(2,4,5-trifluoro-3-(quinoline-6-carbonyl)phenyl)benzamide] | < 5.30 | < 70 | < 5.30 | < 70 | < 5.30
5 | O=C(Nc1ccc(F)c(F)c1)Nc1cc(F)c(F)c(C(=O)c2ccc3ncccc3c2)c1F [Compound C004, 1-(3,4-difluorophenyl)-3-(2,4,5-trifluoro-3-(quinoline-6-carbonyl)phenyl)urea] | < 5.30 | < 70 | < 5.30 | – | 5.30 to 6.00

More lines, main results first:

Row | pIC50 [1] | inhibition at 1 µM (BRAF V600E) [%] | pIC50 [3] | inhibition at 1 µM (BRAF) [%] | SMILES | pIC50 [2]
6 | < 5.30 | 70 to 89 | < 5.30 | < 70 | O=C(Nc1cc(F)c(F)c(C(=O)c2ccc3ncccc3c2)c1F)c1cccc(F)c1 [Compound C006, 3-fluoro-N-(2,4,5-trifluoro-3-(quinoline-6-carbonyl)phenyl)benzamide] | < 5.30
7 | < 5.30 | < 70 | < 5.30 | – | O=C(Nc1cc(F)c(F)c(C(=O)c2ccc3ncccc3c2)c1F)c1ccc(F)cc1 [Compound C007, 4-fluoro-N-(2,4,5-trifluoro-3-(quinoline-6-carbonyl)phenyl)benzamide] | < 5.30
8 | < 5.30 | < 70 | < 5.30 | – | O=C(Nc1cc(F)c(F)c(C(=O)c2ccc3ncccc3c2)c1F)c1ccc(F)c(F)c1 [Compound C009, 3,4-difluoro-N-(2,4,5-trifluoro-3-(quinoline-6-carbonyl)phenyl)benzamide] | < 5.30
9 | < 5.30 | < 70 | < 5.30 | – | O=C(Nc1cccc(F)c1)Nc1cc(F)c(F)c(C(=O)c2ccc3ncccc3c2)c1F [Compound C002, 1-(3-fluorophenyl)-3-(2,4,5-trifluoro-3-(quinoline-6-carbonyl)phenyl)urea] | 5.30 to 6.00
10 | < 5.30 | < 70 | < 5.30 | < 70 | O=C(Nc1ccc(F)cc1)Nc1cc(F)c(F)c(C(=O)c2ccc3ncccc3c2)c1F [Compound C003, 1-(4-fluorophenyl)-3-(2,4,5-trifluoro-3-(quinoline-6-carbonyl)phenyl)urea] | < 5.30
